Measurements as given in PMC7994622, “Eryptosis and Malaria: New Experimental Guidelines and Re-Evaluation of the Antimalarial Potential of Eryptosis Inducers” (Frontiers in Cellular and Infection Microbiology, 2021).
“Also recorded” adds a separate entry of the source. Structures can show the parent of a compound that is named as a salt. Where two headings read alike, the source gives them in different places. Blank lines part the entries; values can stand above or below the compound they belong to.

Legend:
P. falciparum [1] = test: Parasite growth inhibition assay (SYBR Gold, 72 h); assay type: cell-based, Plasmodium falciparum 3D7
Method: (§1) Use of human erythrocytes was approved by the La Trobe University Research Ethics Committee (ethics number HEC17‐013) and an Australian Red Cross Blood Service Agreement (Deed 19-05VIC-01). Red blood cell populations are intrinsically heterogeneous and variable between donors, therefore each experiment presented in this study was conducted a minimum of three independent times, each with a different batch of blood. Human red cells were processed as soon as possible upon collection to minimize erythrocyte aging. Naïve (non-infected) erythrocytes and Plasmodium falciparum 3D7-infected erythrocytes were cultured at 37°C, in low oxygen conditions (1% O2, 5% CO2, 94% N2), at 4% or 0.4% hematocrit, in incomplete RPMI media (iRPMI: RPMI 1640 HEPES, 50 mg/L hypoxanthine, 10 mg/L gentamicin, pH 6.74), complete RPMI media (cRPMI: incomplete RPMI supplemented with 2.25 g/L sodium bicarbonate and 5 g/L AlbuMAX II), or Ringer solution (1mM CaCl2, 5mM glucose, 32 mM HEPES pH 7.4, 5 mM KCl, 1mM MgSO4, 125mM NaCl). P. falciparum standard in vitro culture conditions were conducted as previously described ([Trager and Jensen, 1976]).
Compound-induced parasite growth inhibition was measured as previously described ([Morahan et al., 2020]). Briefly, an asynchronous parasite culture at 0.25% parasitemia and 2% hematocrit was incubated in a 96-well plate with a two-fold serial dilution of compound over 72 h in standard culture conditions (cRPMI, 37°C, low oxygen). Compounds (at 10 mM in DMSO) were added to the first well of the dilution series to produce a 50 µM drug concentration (and 0.5% (v/v) DMSO) and diluted two-fold until a concentration of 0.19 nM compound was reached. Each condition was conducted in triplicates, subject to a freeze/thaw cycle and incubated with the DNA intercalant SYBR Gold following manufacturer instructions (SYBR™ Gold Nucleic Acid Stain, Invitrogen). The average fluorescence between triplicates was measured at 495 nm using a CLARIOstar® microplate reader and analyzed as a proxy of parasite replication.

naïve erythrocytes [2] = test: Eryptosis assay by flow cytometry (PS exposure, cell size, intracellular calcium) on naïve erythrocytes; assay type: cell-based, human; conditions: for Eryptosis hallmarks, naïve erythrocytes: 4 h in iRPMI, 1, 5, 10 μM (ionomycin 1 μM), PS exposure, cell size, intracellular calcium, hemolysis, significant changes
Method: as §1
(§2) Drug assays measuring eryptosis were carried out in 100 μl or 500 μl of culture when using 4% or 0.4% hematocrit conditions, respectively. DMSO, the vehicle, was used for the no-drug conditions. Cells were incubated at 37°C, in low oxygen conditions for 1 h to 48 h depending on the assay. Each experiment was performed in triplicate unless otherwise indicated and cells were analyzed by flow cytometry. […] Cells were washed in staining buffer (5 mM CaCl2, 5 mM glucose, 32 mM HEPES pH7.4, 5 mM KCl, 1 mM MgSO4, 125 mM NaCl), resuspended in 0.3 μM of intracellular calcium dye x-Rhod-1 AM (Invitrogen) and incubated in the dark at 37°C for 30 min. Subsequently, cells were washed in staining buffer and incubated with Annexin V-PE (1:20 dilution in staining buffer; BD Bioscience) at 37°C for 20 min in the dark for the staining of surface-exposed phosphatidylserine. Cells were resuspended in 200 μl staining buffer and analyzed within the hour using a CytoFLEX S flow cytometer (Beckman Coulter). 100,000 total events were recorded for each condition at a flow rate of 10 μl/min. Data were analyzed using FlowJo V10. For PS exposure measure, gating was set using data obtained with naïve erythrocytes DMSO control. Infected cells were gated using Hoechst fluorescence. The percentage of Annexin V-PE positive cells, the mean forward scatter height (FSC-H) and mean x-Rhod-1 fluorescence area (PE-A) were acquired for naïve and infected-erythrocytes.

erythrocytes = conditions: cited from earlier work
[3] = system: P. falciparum-infected erythrocytes; test: Eryptosis assay by flow cytometry on P. falciparum-infected erythrocytes; assay type: cell-based, human; conditions: 4 h in iRPMI, 4% hematocrit, 1, 5, 10 μM (ionomycin 1 μM), PS exposure, cell size, intracellular calcium, hemolysis, significant changes
Method: as §1, §2

P. falciparum [4] = conditions: cited from earlier work
P. berghei = conditions: cited from earlier work
naïve erythrocytes [5] = test: Hemolysis assay (absorbance 405 nm) on naïve erythrocytes; assay type: cell-based, human; conditions: 48 h
Source text: Absorbance of culture media alone was considered as baseline.

[6] = Plasmodium falciparum, asynchronous culture, cRPMI, up to 50 µM, N=5, read-out: P. falciparum IC50
[7] = asynchronous culture, cRPMI, up to 50 µM, N=5, read-out: P. falciparum IC50
[8] = 1 μM, 1 h, iRPMI, 4% hematocrit

SMILES: CCN(CC)CCCC(C)Nc1ccnc2cc(Cl)ccc12 (stereo not drawn) [chloroquine]
IC50 (P. falciparum [1]; Plasmodium falciparum, read-out: P. falciparum IC50, asynchronous culture, cRPMI, 72 h): 0.022 µM

IC50 (P. falciparum [1]; [6]): 12 µM | IC50 (P. falciparum [1]; asynchronous culture, cRPMI, up to 50 µM, N=5, listed as cordycepin, read-out: P. falciparum IC50): > 10 µM | IC50 (P. falciparum [1]; [7]): 12.1 µM
SMILES: Nc1ncnc2c1ncn2[C@@H]1O[C@H](CO)C[C@H]1O [Cordycepin, cordycepin]
Eryptosis hallmarks, naïve erythrocytes (naïve erythrocytes [2]; 4% hematocrit): Ns | Published eryptosis induction concentration (erythrocytes; mouse erythrocytes, ref Lui et al., 2007): 31 µM, ([Lui et al., 2007]) | Published eryptosis induction concentration (erythrocytes; mouse erythrocytes, ref Lui et al., 2007, listed as cordycepin): 31 µM | Eryptosis hallmarks, P. falciparum-infected erythrocytes [3]: Ns

IC50 (P. falciparum [1]; [6]): ~2 µM | IC50 (P. falciparum [1]; [7]): ≤ 2 µM
SMILES: C=C1C(=O)[C@]23[C@H](O)[C@H]1CC[C@H]2[C@@]12CO[C@]3(O)[C@@H](O)[C@@H]1C(C)(C)CC[C@@H]2O [Oridonin, oridonin]
Eryptosis hallmarks, naïve erythrocytes (naïve erythrocytes [2]; 4% hematocrit): Ns | Eryptosis hallmarks, naïve erythrocytes (naïve erythrocytes [2]; 4% hematocrit, listed as oridonin): did not induce statistically significant changes; also recorded: no significant increase | Published eryptosis induction concentration (erythrocytes; naïve erythrocytes, ref Jilani et al., 2011): 25 µM, ([Jilani et al., 2011]) | Published eryptosis induction concentration (erythrocytes; naïve erythrocytes, ref Jilani et al., 2011, listed as oridonin): 25 µM | Eryptosis hallmarks, P. falciparum-infected erythrocytes [3]: Ns | Eryptosis hallmarks, P. falciparum-infected erythrocytes ([3]; listed as oridonin): did not induce statistically significant changes; also recorded: no significant increase

IC50 (P. falciparum [1]; [7]): 65.8 µM
SMILES: O=c1cc(-c2ccc(O)cc2)oc2cc(O)cc(O)c12 [Apigenin, apigenin]
Eryptosis hallmarks, naïve erythrocytes (naïve erythrocytes [2]; 4% hematocrit): Ns | IC50 (P. falciparum [4]; in vitro, ref Fallatah and Georges, 2017, read-out: P. falciparum IC50, previously published): 36 µM | Published eryptosis induction concentration (erythrocytes; naïve erythrocytes, ref Zbidah et al., 2012): 15 µM, ([Zbidah et al., 2012]) | Published eryptosis induction concentration (erythrocytes; naïve erythrocytes, ref Zbidah et al., 2012, listed as apigenin): 15 µM | Eryptosis hallmarks, P. falciparum-infected erythrocytes [3]: Ns | Effect on P. berghei: parasitemia (P. berghei; Pb, ref Amiri et al., 2018): Decreased parasitemia (Pb) ([Amiri et al., 2018])

IC50 (P. falciparum [1]; Plasmodium falciparum, asynchronous culture, cRPMI, read-out: P. falciparum IC50): 0.012 µM
SMILES: C[C@@H]1CC[C@H]2[C@@H](C)C(=O)O[C@@H]3O[C@@]4(C)CC[C@@H]1[C@]32OO4 [artemisinin]

SMILES: CC(C)(C)CC(C)(C)c1ccc(OCCOCC[N+](C)(C)Cc2ccccc2)cc1 [Benzethonium, benzethonium chloride]
Eryptosis hallmarks, naïve erythrocytes (naïve erythrocytes [2]; 4% hematocrit): Ns | Eryptosis hallmarks, P. falciparum-infected erythrocytes [3]: Ns *

SMILES: C[C@H](CCC(=O)O)C[C@H](C)C[C@H](C)C(=O)/C=C(\O)[C@H](C)C[C@H](C)C/C=C/[C@@H](C)[C@@H](O)[C@@H](C)[C@@H](O)C[C@@H]1CC[C@@](C)([C@H]2CC[C@@](C)([C@@H](C)O)O2)O1 [Ionomycin, ionomycin]
increase in PS exposure compared to the no-drug condition (naïve erythrocytes [2]; 1 μM, 1 h, Ringer solution, 4% hematocrit): 62 fold | PS exposure (naïve erythrocytes [2]; 1 μM, 1 h, Ringer, 4% hematocrit): 6.6% | PS exposure (naïve erythrocytes [2]; [8]): 4.4% | increase in PS exposure compared to the no-drug condition (naïve erythrocytes [2]; [8]): 45 fold | PS exposure (naïve erythrocytes [2]; 1 μM, 24 h, Ringer+Albumax, 4% hematocrit): 13.2% | PS exposure (naïve erythrocytes [2]; 1 μM, 48 h, Ringer+Albumax, 4% hematocrit): 22% | PS exposure (naïve erythrocytes [2]; 1 μM, 48 h, Ringer, 4% hematocrit): 24% | PS exposure (naïve erythrocytes [2]; 1 μM, 48 h, iRPMI+Albumax, 4% hematocrit): 15% | PS exposure (naïve erythrocytes [2]; 1 μM, 48 h, iRPMI+Albumax, 4% hematocrit, listed as ionomycin): 14.6% | PS exposure (naïve erythrocytes [2]; 1 μM, 48 h, iRPMI, 4% hematocrit): 23% | Eryptosis hallmarks, naïve erythrocytes (naïve erythrocytes [2]; 4% hematocrit): ↑ PS exposure ↓ Cell Size (1 μM) | Eryptosis hallmarks, naïve erythrocytes (naïve erythrocytes [2]; 4% hematocrit, listed as ionomycin): significant increase of PS exposure and a decrease in cell size | hemolysis (naïve erythrocytes [5]; 1 μM, Ringer or iRPMI with addition of Albumax, 4% hematocrit): abolish ionomycin-induced hemolysis | hemolysis (OD405) (naïve erythrocytes [5]; 1 μM, Ringer, 4% hematocrit): 20.5 | hemolysis (OD405) (naïve erythrocytes [5]; 1 μM, iRPMI, 4% hematocrit): 5.5 | Eryptosis hallmarks, P. falciparum-infected erythrocytes [3]: ↑ PS exposure ↓ Cell Size (1 μM) | Eryptosis hallmarks, P. falciparum-infected erythrocytes ([3]; listed as ionomycin): significant increase of PS exposure and a decrease in cell size

SMILES: CNC(=O)c1cc(Oc2ccc(NC(=O)Nc3ccc(Cl)c(C(F)(F)F)c3)cc2)ccn1 [BAY 43-9006, Sorafenib]
percentage of PS-exposing cells (naïve erythrocytes [2]; 10 µM, 48 h, Ringer solution, 0.4% hematocrit): 41% | percentage of PS-exposing cells (naïve erythrocytes [2]; 10 µM, 48 h, Ringer solution, 4% hematocrit): 10% | PS exposure (naïve erythrocytes [2]; 10 µM, 48 h, cRPMI, 4% hematocrit): no significant increase | Eryptosis hallmarks, naïve erythrocytes (naïve erythrocytes [2]; 4% hematocrit): Ns | hemolysis (naïve erythrocytes [5]; 10 µM, Ringer, 0.4% hematocrit): significantly induced hemolysis | hemolysis (naïve erythrocytes [5]; 10 µM, Ringer, 4% hematocrit): not | hemolysis (naïve erythrocytes [5]; 10 µM, cRPMI, 4% hematocrit): not | Eryptosis hallmarks, P. falciparum-infected erythrocytes [3]: Ns | IC50 (P. falciparum [1]; [6]): < 10 µM | IC50 (P. falciparum [1]; [7]): 7.48 µM

SMILES: CCCCc1oc2ccccc2c1C(=O)c1cc(I)c(OCCN(CC)CC)c(I)c1 [Amiodarone, amiodarone HCl]
Eryptosis hallmarks, naïve erythrocytes (naïve erythrocytes [2]; 4% hematocrit): ↑ Calcium (5 μM) | Effect on P. falciparum: parasitemia (P. falciparum [4]; Pf in vitro, ref Bobbala et al., 2010b): Reduced parasitemia | Published eryptosis induction concentration (erythrocytes; naïve erythrocytes, ref Nicolay et al., 2007): 5 µM, ([Nicolay et al., 2007]) | Published eryptosis induction concentration (erythrocytes; naïve erythrocytes, ref Nicolay et al., 2007, listed as amiodarone): 5 µM | Eryptosis hallmarks, P. falciparum-infected erythrocytes [3]: Ns | Effect on P. berghei: parasitemia (P. berghei; Pb in vivo, ref Bobbala et al., 2010b): Reduced parasitemia | Effect on P. berghei: mice survival (P. berghei; Pb, ref Bobbala et al., 2010b): increased mice survival
